Results published in publication PMC4465272 (eNeuro, 2015).
Entries after “also recorded” stand apart in the source; their conditions may differ.

Columns and labels:
[1] = system: CaV current in rat sensory neurons (DRG); experiment: cells; assay type: cell-based, rat (adult male Sprague Dawley)
rat α9α10 nAChRs = assay type: cell-based
[2] = system: N-type CaV (CaV2.2) current in sensory neurons; conditions: cited from earlier work
human GABAB receptor = conditions: cited from earlier work
[3] = system: GABAB receptors expressed in Xenopus laevis oocytes; conditions: cited from earlier work
[4] = system: eEPSCs in the dorsal horn of rat spinal cord; conditions: cited from earlier work
animal pain models = conditions: in vivo; cited from earlier work
α9α10 nAChRs = conditions: cited from earlier work
[5] = system: nAChRs subtypes containing the α3 subunit; conditions: cited from earlier work

Vc1.1
CaV current inhibition in the neuron with the largest Vc1.1 and RgIA response [1]: 41% | CaV current inhibition in the neuron with the largest baclofen response [1]: 3.5% | average CaV current inhibition in neurons with baclofen responses of 20 − 24% [1]: 4.3 ± 6.6% | enhancement of CaV current inhibition by BSA [1]: no enhancement of the CaV current inhibition was observed | inhibition of CaV current in example neuron [1]: 40% | postpulse CaV current inhibition [1]: 6.2 ± 12.5% | prepulse CaV current inhibition [1]: 6.5 ± 12.7% | recovery τ from CaV current block [1]: 0.5 ± 0.2 min | reversibility of CaV current block [1]: readily reversible; also recorded: almost full recovery from inhibition | voltage dependence of CaV current inhibition [1]: not voltage-dependent | average CaV current inhibition (as summarised in discussion) ([1]; 1 µM): 7% | average effect on CaV current (in words) ([1]; 1 µM): only minimal inhibition | neurons responding with CaV current inhibition >10% ([1]; 1 µM): 19% | block of ACh-induced current (rat α9α10 nAChRs): 85 ± 13% | GABAB dependence of N-type CaV current inhibition [2]: requires functional GABAB receptors | reversibility of CaV current block [2]: irreversible | sensory neurons with CaV current inhibited [2]: ~75% | effect on binding of [^3H]CGP-54626, a specific competitive antagonist (human GABAB receptor): failed to block binding; also recorded: Neither Vc1.1 or RgIA were able to prevent the binding | activation of GABAB receptors [3]: do not activate GABAB receptors; also recorded: failed to activate GABAB receptors | effect on eEPSCs / EPSPs in dorsal horn [4]: does not affect excitatory neurotransmitter release; also recorded: no inhibition of EPSPs; also recorded: failed to affect | antinociceptive / analgesic effect (animal pain models): antinociceptive effects | antagonism of α9α10 nAChRs (α9α10 nAChRs): potent antagonists | antagonism of nAChRs containing the α3 subunit [5]: weakly antagonizes
